The source made the active and inactive calls. The rule behind the calls is not given here.
Key:
[1] = test system: Rattus norvegicus; assay: Change in systolic blood pressure in anesthetized spontaneous hypertensive rats when 5 mg/kg of compound was administered intravenously; type: functional, Artery; conditions: route intravenous
[2] = test system: Rattus norvegicus; assay: Change in diastolic blood pressure in anesthetized spontaneous hypertensive rats when 5 mg/kg of compound was administered intravenously; type: functional, Artery; conditions: route intravenous
[3] = test system: Rattus norvegicus; assay: Duration of action of 5 mg/kg intravenous dose of compound was determined in SHR test for antihypertensive activity in rats; type: functional
[4] = target: Beta-1 adrenergic receptor (Cavia porcellus, UniProt B0FL73); assay: (§1) Antagonist activity of compound against Beta-1 adrenergic receptor in isolated guinea pig left atria; type: functional; conditions: read-out: pA2 app (converted)
Beta-1 adrenergic receptor, sequence (B0FL73 whole entry): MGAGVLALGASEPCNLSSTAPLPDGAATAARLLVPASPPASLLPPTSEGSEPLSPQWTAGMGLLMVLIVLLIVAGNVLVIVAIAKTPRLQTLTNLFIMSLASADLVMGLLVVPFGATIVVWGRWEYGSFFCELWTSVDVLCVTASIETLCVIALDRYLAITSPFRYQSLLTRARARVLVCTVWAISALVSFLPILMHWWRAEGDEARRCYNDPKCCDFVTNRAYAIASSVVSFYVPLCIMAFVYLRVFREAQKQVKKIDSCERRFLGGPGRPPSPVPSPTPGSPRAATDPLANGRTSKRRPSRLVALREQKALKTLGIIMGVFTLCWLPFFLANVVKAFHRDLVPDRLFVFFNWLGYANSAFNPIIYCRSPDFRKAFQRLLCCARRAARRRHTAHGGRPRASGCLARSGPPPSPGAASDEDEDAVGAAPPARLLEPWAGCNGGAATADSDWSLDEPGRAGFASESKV

[5] = test system: Rattus norvegicus; assay: Change in systolic blood pressure in anesthetized spontaneous hypertensive rats when 10 mg/kg of compound was administered intravenously; type: functional, Artery; conditions: route intravenous
[6] = test system: Rattus norvegicus; assay: Duration of action of 10 mg/kg intravenous dose of compound was determined in SHR test for antihypertensive activity in rats; type: functional
[7] = test system: Rattus norvegicus; assay: Change in diastolic blood pressure in anesthetized spontaneous hypertensive rats when 10 mg/kg of compound was administered intravenously; type: functional, Artery; conditions: route intravenous
[8] = test system: Canis lupus familiaris; assay: Dose required to induce at least 50% inhibition of the isoprenaline-induced effect, administered intravenously
[9] = target: Beta-1 adrenergic receptor (Cavia porcellus) (UniProt B0FL73); assay: as §1; type: functional
Beta-1 adrenergic receptor (Cavia porcellus), sequence (B0FL73 1-467): as the sequence (B0FL73 whole entry) above

[10] = species on record: Rattus norvegicus; assay: Duration of action of compound was determined for antihypertensive action in rats; type: functional
[11] = test system: Rattus norvegicus; assay: Duration of action of 2 mg/kg intravenous dose of compound was determined in SHR test for antihypertensive activity in rats; type: functional
[12] = test system: Rattus norvegicus; assay: Change in systolic blood pressure in anesthetized spontaneous hypertensive rats when 2.5 mg/kg of compound was administered intravenously; conditions: route intravenous
[13] = test system: Rattus norvegicus; assay: Change in diastolic blood pressure in anesthetized spontaneous hypertensive rats when 2 mg/kg of compound was administered intravenously; type: functional, Artery; conditions: route intravenous
[14] = target: Beta-2 adrenergic receptor (Cavia porcellus) (UniProt Q8K4Z4); assay: Antagonist activity of compound (10e-4 mol/L) against beta 2-adrenergic receptor in isolated guinea pig trachea; Inactive at a concentration of 10e-4 M/L; type: functional, tissue-based
Beta-2 adrenergic receptor (Cavia porcellus) (UniProt Q8K4Z4), sequence (Q8K4Z4 whole entry, looked up): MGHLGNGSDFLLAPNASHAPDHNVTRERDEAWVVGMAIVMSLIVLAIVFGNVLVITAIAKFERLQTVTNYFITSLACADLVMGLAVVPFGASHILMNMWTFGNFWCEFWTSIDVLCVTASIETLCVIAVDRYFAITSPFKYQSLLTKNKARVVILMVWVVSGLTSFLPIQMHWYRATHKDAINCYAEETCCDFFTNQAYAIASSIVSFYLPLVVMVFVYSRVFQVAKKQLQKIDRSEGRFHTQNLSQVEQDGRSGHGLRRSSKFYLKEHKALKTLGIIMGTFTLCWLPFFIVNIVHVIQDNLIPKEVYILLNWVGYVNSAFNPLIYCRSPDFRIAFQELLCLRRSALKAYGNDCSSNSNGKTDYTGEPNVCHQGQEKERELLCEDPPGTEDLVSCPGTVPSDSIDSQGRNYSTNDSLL

[15] = test system: Rattus norvegicus; assay: Change in systolic blood pressure in anesthetized spontaneous hypertensive rats when 2.5 mg/kg of compound was administered intravenously; conditions: route intravenous; remark: listed apart in the source
[16] = test system: Rattus norvegicus; assay: Duration of action of 20 mg/kg intravenous dose of compound was determined in SHR test for antihypertensive activity in rats; type: functional
[17] = test system: Rattus norvegicus; assay: Change in systolic blood pressure in anesthetized spontaneous hypertensive rats when 20 mg/kg of compound was administered intravenously; type: functional, Artery; conditions: route intravenous
[18] = test system: Rattus norvegicus; assay: Change in diastolic blood pressure in anesthetized spontaneous hypertensive rats when 20 mg/kg of compound was administered intravenously; type: functional, Artery; conditions: route intravenous
[19] = test system: Beta-2 adrenergic receptor (Cavia porcellus); assay: Antagonist activity of compound against beta-2 adrenergic receptor in isolated guinea pig trachea; Inactive at a concentration of 10e-4 M/L
[20] = target: Beta-2 adrenergic receptor (Cavia porcellus) (UniProt Q8K4Z4); assay: Antagonist activity of compound against Beta-2 adrenergic receptor in isolated guinea pig trachea; inactive; type: functional, tissue-based
[21] = target: Beta-2 adrenergic receptor (Cavia porcellus) (UniProt Q8K4Z4); assay: Antagonist activity of compound against Beta-2 adrenergic receptor in isolated guinea pig trachea; Inactive at a concentration of 10e-4 M/L; type: functional, tissue-based

SMILES	Kb [4]	pD2 app [9]	Change in BP [2]	Duration of action [3]	Dose [8]	Duration of action [11]	Change in BP [12]	Change in BP [13]	Change in BP [17]	Change in BP [18]	also measured
CC(C)NCC(O)C1=COc2ccccc2O1 (stereo not given)	–	–	-60%	>45 min	–	–	–	–	–	–	Change in BP [1]: -49%
CC(C)NCC(O)COc1cccc2ccccc12 (stereo not given) [PROPRANOLOL]	–	–	-64%	–	0.25 mg/kg	–	–	–	–	–	Change in BP [1]: -54%; Duration of action [10]: 30 min
COc1ccc(CCNCC(O)C2=COc3ccccc3O2)cc1OC (stereo not given)	–	–	–	>25 min	1 mg/kg	>25 min	-33%	-37%	–	–	–
OC(CN1CCN(c2cccc(C(F)(F)F)c2)CC1)C1=COc2ccccc2O1 (stereo not given)	–	–	–	–	10 mg/kg	–	–	–	-65%	-83%	Duration of action [16]: 20 min; pA2 app [19]: inactive; pD2 app [20]: inactive
Oc1nc2ccccc2n1C1CCN(CC(O)C2=COc3ccccc3O2)CC1 (stereo not given)	–	4.89	-43%	>25 min	1 mg/kg	>25 min	-38%	-43%	–	–	pD2 app [21]: inactive; Change in BP [15]: -38%
CC(=O)Nc1ccc(OCC(O)CNC(C)C)cc1 (stereo not given) [PRACTOLOL]	–	–	–	–	2.5 mg/kg	–	–	–	-32%	-31%	pD2 app [21]: inactive; Duration of action [10]: 45 min

Further lines, with some results ahead:

Kb [4]	pD2 app [9]	SMILES	Change in BP [2]	Duration of action [3]	Dose [8]	Duration of action [11]	Change in BP [12]	Change in BP [13]	Change in BP [17]	Change in BP [18]	also measured
8.51 nM	4.8	CC(C)(C)NCC(O)C1=COc2ccccc2O1 (stereo not given)	–	–	1 mg/kg	–	–	–	–	–	Change in BP [5]: -50%; Duration of action [6]: 25 min; Change in BP [7]: -57%
1170 nM	–	OC(CN1CCCCCC1)C1=COc2ccccc2O1 (stereo not given)	–	–	10 mg/kg	–	–	–	–	–	Change in BP [5]: -44%; Duration of action [6]: 20 min; Change in BP [7]: -57%
–	4.84	COc1ccccc1N1CCN(CC(O)C2=COc3ccccc3O2)CC1 (stereo not given)	-41%	>45 min	–	>45 min	-41%	-41%	–	–	pA2 app [14]: inactive; Change in BP [15]: -41%
617 nM	–	OC(CN1CCCCC1)C1=COc2ccccc2O1 (stereo not given)	–	–	–	–	–	–	-66%	-78%	Duration of action [16]: 20 min
